Here are results for twelve molecules from patent US12391679B2, “Benzamide-substituted bicyclic imidazo- and pyrazolo-fused -pyridine, -pyrimide, and -pyridazine compounds for treatment of inflammatory diseases” (ONCO3R Therapeutics BV, priority 2019, dated 2025).

The structures appear in SMILES notation. pEC50: −log10 of the molar value. Where two headings read alike, the source gives them in different places.

In this experiment the test system is LPS-induced TNFα in monocyte-derived macrophages. Briefly: MdM assay: LPS-triggered TNFα (ELISA). In kind it is cell-based, human. As to conditions: human MdM, LPS 200 ng/mL, supernatant after 20 h, inhibition of TNFα, read-out: TNFα EC50. An outline of the steps: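 TNFα secretion quantified by streptavidin-HRP/luminol sandwich ELISA in supernatants collected 20 h after LPS (200 ng/mL). Macrophages derived from magnetically isolated human CD14+ monocytes were used at day 10, with compound added 1 h before LPS; final DMSO 0.2%.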

As to `COc1cc(-c2cnc3cc(C4COCCN4C)ccn23)cc(OC(F)F)c1C(=O)NC1CC1` (stereo not drawn) [Cpd 193, N-cyclopropyl-2-(difluoromethoxy)-6-methoxy-4-[7-(4-methylmorpholin-3-yl)imidazo[1,2-a]pyridin-3-yl]benzamide], the negative logarithm of the EC50 (pEC50) (Macrophage) is 5.30 to 6.00.

With `COc1cc(-c2cnc3cc(C(C)(C)C#N)ccn23)cc(OC(F)F)c1C(=O)N1CC(F)C1` [Cpd 96, 2-[3-[3-(difluoromethoxy)-4-(3-fluoroazetidine-1-carbonyl)-5-methoxy-phenyl]imidazo[1,2-a]pyridin-7-yl]-2-methyl-propanenitrile], for the setting “Macrophage”, the pEC50 is 6.00 to 7.00.

For `COc1cc(-c2cnc3cc(C4(C#N)CCOC4)ccn23)cc(OC(F)F)c1C(=O)NC1CC1` (stereo not drawn) [Cpd 123, 4-[7-(3-cyanotetrahydrofuran-3-yl)imidazo[1,2-a]pyridin-3-yl]-N-cyclopropyl-2-(difluoromethoxy)-6-methoxy-benzamide], the negative logarithm of the EC50 (pEC50) (Macrophage) was 5.30 to 6.00.

Turning to `COc1cc(-c2cnn3cc(C4(C#N)CC4)ccc23)cc(OC(F)F)c1C(=O)N[C@@H]1C[C@@H]1F` [Cpd 235, 4-[6-(1-cyanocyclopropyl)pyrazolo[1,5-a]pyridin-3-yl]-2-(difluoromethoxy)-N-[(1R,2S)-2-fluorocyclopropyl]-6-methoxy-benzamide], where the note is “Macrophage”, the pEC50 was 6.00 to 7.00.

Take `COc1cc(-c2cnn3cc(C(C)(C)CO)ccc23)cc(OC(F)F)c1C(=O)NC1CC1` [Cpd 236, N-cyclopropyl-2-(difluoromethoxy)-4-[6-(2-hydroxy-1,1-dimethyl-ethyl)pyrazolo[1,5-a]pyridin-3-yl]-6-methoxy-benzamide]: where the note is “Macrophage”, the pEC50 was 6.00 to 7.00.

Regarding `COc1cc(-c2cnc3cc(C4CCOCC4)c(F)cn23)cc(OC(F)F)c1C(=O)NC1CC1` [Cpd 166, N-cyclopropyl-2-(difluoromethoxy)-4-(6-fluoro-7-tetrahydropyran-4-yl-imidazo[1,2-a]pyridin-3-yl)-6-methoxy-benzamide], for the setting “Macrophage”, the pEC50 was 6.00 to 7.00.

For the molecule `COc1cc(-c2cnc3cc(C4(C#N)COC4)ccn23)cc(OC(F)F)c1C(=O)N[C@@H]1C[C@@H]1F` [Cpd 130, 4-[7-(3-cyanooxetan-3-yl)imidazo[1,2-a]pyridin-3-yl]-2-(difluoromethoxy)-N-[(1R,2S)-2-fluorocyclopropyl]-6-methoxy-benzamide], where the note is “Macrophage”, the negative-log EC50 (pEC50) was 6.00 to 7.00.

On to `COc1cc(-c2cnn3cc(C4(N)CCC4)ccc23)cc(OC(F)F)c1C(=O)N[C@@H]1C[C@@H]1F` [Cpd 261, 4-[6-(1-aminocyclobutyl)pyrazolo[1,5-a]pyridin-3-yl]-2-(difluoromethoxy)-N-[(1R,2S)-2-fluorocyclopropyl]-6-methoxy-benzamide], for which the pEC50 (Macrophage) is 5.30 to 6.00.

`COc1cc(-c2cnc3cc(C(C)(C)C#N)cnn23)cc(OC(F)F)c1C(=O)N[C@@H]1C[C@@H]1F` [Cpd 228, 4-[7-(1-cyano-1-methyl-ethyl)imidazo[1,2-b]pyridazin-3-yl]-2-(difluoromethoxy)-N-[(1R,2S)-2-fluorocyclopropyl]-6-methoxy-benzamide]: the pEC50 (Macrophage) was 6.00 to 7.00.

As to `COc1cc(-c2cnn3cc(C(C)(C)C#N)ccc23)cc(OC(F)F)c1C(=O)N[C@@H]1C[C@H]1F` (single isomer, unassigned) [Cpd 258, 4-[6-(1-cyano-1-methyl-ethyl)pyrazolo[1,5-a]pyridin-3-yl]-2-(difluoromethoxy)-N-(2-fluorocyclopropyl)-6-methoxy-benzamide], the pEC50 was 6.00 to 7.00.

As to `COc1cc(-c2cnc3cc(C(C)(C)C#N)ccn23)cc(OC(F)F)c1C(=O)N1CC(C#N)C1` [Cpd 77, 1-[4-[7-(1-cyano-1-methyl-ethyl)imidazo[1,2-a]pyridin-3-yl]-2-(difluoromethoxy)-6-methoxy-benzoyl]azetidine-3-carbonitrile], the pEC50 (Macrophage) is 6.00 to 7.00.

With `COc1cc(-c2cnc3cc(C(C)O)ccn23)cc(OC(F)F)c1C(=O)NC1CC1` (stereo not drawn) [Cpd 140, N-cyclopropyl-2-(difluoromethoxy)-4-[7-(1-hydroxyethyl)imidazo[1,2-a]pyridin-3-yl]-6-methoxy-benzamide], the pEC50 (Macrophage) was 5.30 to 6.00.
